From patent US7238362B2, “Dithianon-based fungicidal mixtures” (BASF Aktiengesellschaft, priority 2002, dated 2007) come the findings set out here.

The first assay concerns Alternaria solani. Nature of the assay: Activity against early blight of tomato caused by Alternaria solani (protective spray, potted tomato plants). It is filed as in vivo. To be noted: individual active compound, 8 ppm in the spray liquor; tomato leaves, evaluated after 5 days. The protocol:
The active compounds were prepared separately as a stock solution comprising 0.25% by weight of active compound in acetone or DMSO. 1% by weight of the emulsifier Uniperol® EL (wetting agent having emulsifying and dispersing action based on ethoxylated alkylphenols) was added to this solution, and the mixture was diluted with water to the desired concentration.
Leaves of potted plants of the cultivar “Groβe Fleischtomate St. Pierre” were sprayed to runoff point with an aqueous suspension having the concentration of active compounds stated below. The next day, the leaves were infected with an aqueous […] suspension of Alternaria solani in 2% biomalt solution having a density of 0.17×10^6 spores/ml. The plants were then placed in a water-vapor-saturated chamber at temperatures of between 20 and 22 C. After 5 days, the infection on the leaves of the untreated, but infected control plants had developed to such an extent that the infection could be determined visually in %.
Evaluation was carried out by determining the infected leaf area in per cent. These percentages were converted into efficacies.
The efficacy (E) is calculated as follows using Abbot's formula: E=(1−α/β)·100 • α corresponds to the fungal infection of the treated plants in % and • β corresponds to the fungal infection of the untreated (control) plants in %
An efficacy of 0 means that the infection level of the treated plants corresponds to that of the untreated control plants; an efficacy of 100 means that the treated plants were not infected. […]
For the compound `O=C(Nc1ccccc1-c1ccc(Cl)cc1)c1cccnc1Cl` [II-1, boscalid], the “Efficacy in % of the untreated control” value is listed as 63%.
For `O=C(Nc1ccccc1-c1ccc(F)cc1)c1cccnc1Cl` [II-2], the “Efficacy in % of the untreated control” value stood at 27%.
Take `N#Cc1sc2c(=O)c3ccccc3c(=O)c=2sc1C#N` [I, dithianon]: the “Efficacy in % of the untreated control” value amounted to 0%.

Still in this assay, the particulars now being: individual active compound, 16 ppm in the spray liquor; tomato leaves, evaluated after 5 days.
As for `O=C(Nc1ccccc1-c1ccc(Cl)cc1)c1cccnc1Cl` [II-1, boscalid], the “Efficacy in % of the untreated control” value came out at 76%.
As for `O=C(Nc1ccccc1-c1ccc(F)cc1)c1cccnc1Cl` [II-2], the “Efficacy in % of the untreated control” value amounted to 39%.
As to `N#Cc1sc2c(=O)c3ccccc3c(=O)c=2sc1C#N` [I, dithianon], the “Efficacy in % of the untreated control” value is 0%.

Staying with this assay, now noted: individual active compound, 31 ppm in the spray liquor; tomato leaves, evaluated after 5 days.
Take `O=C(Nc1ccccc1-c1ccc(Cl)cc1)c1cccnc1Cl` [II-1, boscalid]: the “Efficacy in % of the untreated control” value is on record as 82%.
With `O=C(Nc1ccccc1-c1ccc(F)cc1)c1cccnc1Cl` [II-2], the “Efficacy in % of the untreated control” value came out at 27%.
As to `N#Cc1sc2c(=O)c3ccccc3c(=O)c=2sc1C#N` [I, dithianon], the “Efficacy in % of the untreated control” value was found to be 27%.

The same assay, now with this note: individual active compound, 63 ppm in the spray liquor; tomato leaves, evaluated after 5 days.
On to `O=C(Nc1ccccc1-c1ccc(Cl)cc1)c1cccnc1Cl` [II-1, boscalid], for which the “Efficacy in % of the untreated control” value came to 88%.
The same measure, in the same setting: to `O=C(Nc1ccccc1-c1ccc(F)cc1)c1cccnc1Cl` [II-2] belongs 88%.
As to `N#Cc1sc2c(=O)c3ccccc3c(=O)c=2sc1C#N` [I, dithianon], the “Efficacy in % of the untreated control” value was determined as 63%.
